Patent US20220281821A1, “INDAZOLE COMPOUNDS AND THEIR PHARMACEUTICAL COMPOSITIONS” (Jinan University, priority 2019, published 2022)

Tests used:
[1] = target: T1, BaF3-ETV6-NTRK2 (Homo sapiens, UniProt Q16620); assay: Cell proliferation inhibition (CCK-8), BaF3-ETV6-NTRK2 stable strain; type: cell-based, mouse; details: BaF3-ETV6-NTRK2, 72 hours
T1 construct: fused on or other part: P41212 (Transcription factor ETV6)
Procedure, shortened: (§1)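 Ba/F3 cells stably electroporated with ETV6-NTRK3, CD74-NTRK1 or ETV6-NTRK2, selected with G418 and grown without IL3, then cloned by limiting dilution.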

[2] = target: T2, TRKB (Homo sapiens, UniProt Q16620); assay: Z′-LYTE kinase activity assay, TRKB; type: biochemical; details: ATP 25 uM
T2 construct: purchased life technologies PV3616
T2 sequence (Q16620 32-822): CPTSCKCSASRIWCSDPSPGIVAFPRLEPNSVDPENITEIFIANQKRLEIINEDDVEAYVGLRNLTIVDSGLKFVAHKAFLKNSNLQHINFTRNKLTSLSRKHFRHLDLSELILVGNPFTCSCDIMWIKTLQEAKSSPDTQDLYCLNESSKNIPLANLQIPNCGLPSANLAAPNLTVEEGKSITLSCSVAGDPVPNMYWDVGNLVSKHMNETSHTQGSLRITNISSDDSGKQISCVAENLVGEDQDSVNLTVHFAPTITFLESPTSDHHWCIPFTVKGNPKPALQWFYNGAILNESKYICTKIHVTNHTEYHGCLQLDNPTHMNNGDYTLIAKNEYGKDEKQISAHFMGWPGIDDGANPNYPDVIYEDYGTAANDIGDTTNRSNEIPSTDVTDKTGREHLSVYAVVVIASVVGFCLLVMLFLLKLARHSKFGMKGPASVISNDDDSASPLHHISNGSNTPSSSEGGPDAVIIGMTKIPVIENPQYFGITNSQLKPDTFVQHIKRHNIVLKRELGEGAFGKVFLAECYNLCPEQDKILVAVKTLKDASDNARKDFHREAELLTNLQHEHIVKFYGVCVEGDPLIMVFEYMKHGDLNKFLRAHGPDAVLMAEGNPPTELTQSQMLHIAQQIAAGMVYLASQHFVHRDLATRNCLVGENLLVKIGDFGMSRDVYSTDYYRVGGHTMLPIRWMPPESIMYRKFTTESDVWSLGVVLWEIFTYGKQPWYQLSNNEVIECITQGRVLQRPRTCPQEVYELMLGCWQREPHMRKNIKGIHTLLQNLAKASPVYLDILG
From the text: (§2) Kinase activity assay: Z′-LYTE™ technology (detection by fluorescence, enzyme-conjugated format, based on the difference in sensitivity of phosphorylated and non-phosphorylated peptides to proteolytic cleavage) was applied, and using the principle of fluorescence resonance energy transfer (FRET), a Z′-LYTE™ FRET peptide substrate (Z′-LYTE™ Tyrosine 1 Peptide Substrate, Invitrogen, PV3190), and a secondary reaction were used to detect the inhibitory activity of the compounds on TRKs (TRK1, TRK2, TRK3) (life technologies, PV3144, PV3616, PV3617).
(§3) Enzymatic reaction: In a 384-well plate, 5 μL of an enzyme-substrate system (50 mM HEPES pH 7.5, 0.01% BRIJ-35, 10 mM MgCl2, 1 mM EGTA, 2 μM Tyr 01 Peptide Substrate) was added and 5 nL of compound (concentration gradient) was transferred thereto by using the echo520 ultramicro liquid pipetting system. […] After shaking and mixing, centrifuging was performed. A reaction was carried out at 30° C. in the dark for 1.5 hours.
(§4) The data were analyzed as follows:
(§5) Phosphorylation ratio=1−{(emission ratio×F100%−C100%)/[C0%−C100%+emission ratio×(F100%−F0%)]}×100;
(§6) Inhibition rate=100×(1−compound phosphorylation ratio/negative control phosphorylation ratio).
(§7) IC50 values were calculated by using GraphPad Prism 5.0 software.

[3] = target: T3, TRKC (Homo sapiens, UniProt Q16288); assay: Z′-LYTE kinase activity assay, TRKC; type: biochemical; details: ATP 50 uM
T3 construct: purchased life technologies PV3617
T3 sequence (Q16288 32-839): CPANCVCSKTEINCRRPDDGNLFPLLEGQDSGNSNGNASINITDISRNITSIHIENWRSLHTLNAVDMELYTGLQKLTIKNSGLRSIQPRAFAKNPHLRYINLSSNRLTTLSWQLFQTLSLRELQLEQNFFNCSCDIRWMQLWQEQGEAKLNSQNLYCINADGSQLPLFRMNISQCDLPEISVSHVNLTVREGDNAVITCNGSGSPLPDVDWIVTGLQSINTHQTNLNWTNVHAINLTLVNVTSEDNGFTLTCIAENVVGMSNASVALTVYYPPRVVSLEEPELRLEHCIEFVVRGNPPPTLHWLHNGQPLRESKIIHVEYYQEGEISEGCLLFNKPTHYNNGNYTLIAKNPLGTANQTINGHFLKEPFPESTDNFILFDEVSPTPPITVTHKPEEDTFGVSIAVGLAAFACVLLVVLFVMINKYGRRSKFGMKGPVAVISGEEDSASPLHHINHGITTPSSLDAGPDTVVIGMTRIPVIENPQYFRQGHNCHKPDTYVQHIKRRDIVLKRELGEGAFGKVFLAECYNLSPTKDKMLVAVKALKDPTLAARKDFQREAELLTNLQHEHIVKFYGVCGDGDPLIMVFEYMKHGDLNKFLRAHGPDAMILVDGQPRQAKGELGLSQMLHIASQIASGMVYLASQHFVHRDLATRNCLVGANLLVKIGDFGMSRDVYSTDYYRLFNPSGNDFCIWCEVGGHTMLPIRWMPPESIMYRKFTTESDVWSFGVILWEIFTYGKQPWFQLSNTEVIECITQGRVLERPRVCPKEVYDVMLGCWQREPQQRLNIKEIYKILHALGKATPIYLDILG
From the text: as §2, §3, §4, §7

[4] = target: T4, TRKA (Homo sapiens, UniProt P04629); assay: Z′-LYTE kinase activity assay, TRKA; type: biochemical; details: ATP 400 uM
T4 construct: purchased life technologies PV3144
T4 sequence (P04629 440-796 limits assumed): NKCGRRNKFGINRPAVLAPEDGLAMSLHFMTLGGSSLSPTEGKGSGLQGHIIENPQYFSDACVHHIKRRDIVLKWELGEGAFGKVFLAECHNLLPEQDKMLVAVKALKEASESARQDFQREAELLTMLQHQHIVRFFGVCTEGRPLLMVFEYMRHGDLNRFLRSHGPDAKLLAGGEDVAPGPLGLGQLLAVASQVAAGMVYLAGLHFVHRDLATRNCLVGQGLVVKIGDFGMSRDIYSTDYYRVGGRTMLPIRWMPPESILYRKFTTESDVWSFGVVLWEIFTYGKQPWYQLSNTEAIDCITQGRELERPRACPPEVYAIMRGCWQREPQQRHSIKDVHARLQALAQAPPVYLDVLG
From the text: as §2, §3, §4, §5, §6, §7

[5] = target: T5, BaF3-CD74-NTRK1 (Homo sapiens, UniProt P04629); assay: Cell proliferation inhibition (CCK-8), BaF3-CD74-NTRK1 stable strain; type: cell-based, mouse; details: BaF3-CD74-NTRK1, 72 hours
T5 construct: fused on or other part: P04233 (HLA class II histocompatibility antigen gamma chain)
T5 sequence (P04629 510-796 limits assumed): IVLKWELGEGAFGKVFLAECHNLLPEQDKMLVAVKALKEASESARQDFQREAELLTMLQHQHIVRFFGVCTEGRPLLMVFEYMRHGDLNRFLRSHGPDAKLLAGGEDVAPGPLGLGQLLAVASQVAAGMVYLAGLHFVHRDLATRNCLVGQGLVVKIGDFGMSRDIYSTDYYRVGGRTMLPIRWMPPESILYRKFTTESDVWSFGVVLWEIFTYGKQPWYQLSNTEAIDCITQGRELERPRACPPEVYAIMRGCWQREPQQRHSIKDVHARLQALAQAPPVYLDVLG
Procedure, shortened: as §1

[6] = target: T6, BaF3-ETV6-NTRK3 (Homo sapiens, UniProt Q16288); assay: Cell proliferation inhibition (CCK-8), BaF3-ETV6-NTRK3 stable strain; type: cell-based, mouse; details: BaF3-ETV6-NTRK3, 72 hours
T6 construct: fused on or other part: P41212 (Transcription factor ETV6)
T6 sequence (Q16288 whole entry, the tested form may be a part): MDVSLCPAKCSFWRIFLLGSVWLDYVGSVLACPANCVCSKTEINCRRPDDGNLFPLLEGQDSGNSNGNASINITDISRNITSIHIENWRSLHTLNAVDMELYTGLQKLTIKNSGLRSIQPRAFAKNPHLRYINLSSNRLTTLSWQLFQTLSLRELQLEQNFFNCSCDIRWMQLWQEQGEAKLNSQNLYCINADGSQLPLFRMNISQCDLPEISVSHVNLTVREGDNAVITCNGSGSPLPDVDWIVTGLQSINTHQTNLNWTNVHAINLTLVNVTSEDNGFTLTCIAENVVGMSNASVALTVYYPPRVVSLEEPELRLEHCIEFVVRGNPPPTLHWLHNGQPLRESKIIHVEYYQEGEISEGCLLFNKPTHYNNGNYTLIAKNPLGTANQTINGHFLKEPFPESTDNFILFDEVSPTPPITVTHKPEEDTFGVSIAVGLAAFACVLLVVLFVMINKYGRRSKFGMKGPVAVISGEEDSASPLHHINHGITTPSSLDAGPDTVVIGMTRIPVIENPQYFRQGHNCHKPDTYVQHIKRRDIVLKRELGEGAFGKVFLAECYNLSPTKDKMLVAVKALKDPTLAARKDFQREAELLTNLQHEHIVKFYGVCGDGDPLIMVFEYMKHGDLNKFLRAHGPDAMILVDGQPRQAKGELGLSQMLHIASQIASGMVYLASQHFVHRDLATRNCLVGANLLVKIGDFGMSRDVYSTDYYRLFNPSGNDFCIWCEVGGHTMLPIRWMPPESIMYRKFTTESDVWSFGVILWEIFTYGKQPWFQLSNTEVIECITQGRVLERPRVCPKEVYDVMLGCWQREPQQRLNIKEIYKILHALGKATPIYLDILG
Procedure, shortened: as §1

T1 sequence (Q16620 538-822 limits assumed): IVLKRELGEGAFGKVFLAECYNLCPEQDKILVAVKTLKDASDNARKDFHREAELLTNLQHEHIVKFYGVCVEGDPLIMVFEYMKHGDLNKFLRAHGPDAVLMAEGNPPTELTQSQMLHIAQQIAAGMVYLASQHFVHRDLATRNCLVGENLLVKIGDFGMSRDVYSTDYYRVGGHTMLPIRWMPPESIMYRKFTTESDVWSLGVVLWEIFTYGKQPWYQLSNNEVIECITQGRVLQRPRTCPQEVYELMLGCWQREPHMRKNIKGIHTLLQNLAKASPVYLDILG

| SMILES | IC50 [1] | IC50 [2] | IC50 [3] | IC50 [4] | IC50 [5] | IC50 [6] |
| --- | --- | --- | --- | --- | --- | --- |
| Fc1cccc(Cc2ccc3[nH]nc(/C=C/c4ccccn4)c3c2)c1F [DYX-082, (E)-5-(2,3-difluorobenzyl)-3-(2-(pyridin-2-yl)vinyl)-1H-indazole] | 248 nM | 67.8 nM | 8.5 nM | 15.2 nM | 584 nM | 159 nM |
| Fc1ccc(F)c([C@H]2CCCN2c2ccc3[nH]nc(/C=C/c4ccccn4)c3c2)c1 [DYX-170, (R,E)-5-(2-(2,5-difluorophenyl)pyrrolidin-1-yl)-3-(2-(pyridin-2-yl)vinyl)-1H-indazole] | 242 nM | 18.4 nM | 1.9 nM | 8.1 nM | 99.4 nM | 167 nM |
| FC(F)(F)c1cccc(Cc2ccc3[nH]nc(/C=C/c4ccccn4)c3c2)c1 [DYX-138X, (E)-3-(2-(pyridin-2-yl)vinyl)-5-(3-(trifluoromethyl)benzyl)-1H-indazole] | 4080 nM | 356 nM | 262 nM | 757 nM | 6650 nM | > 10000 nM |
| CN(Cc1ccc2[nH]nc(/C=C/c3ccccn3)c2c1)c1cc(F)cc(F)c1 [DYX-193, (E)-3,5-difluoro-N-methyl-N-((3-(2-(pyridin-2-yl)vinyl)-1H-indazol-5-yl)methyl)aniline] | 316 nM | 120 nM | 33.2 nM | 45.4 nM | 136 nM | 83 nM |
| COc1cccc(Cc2ccc3[nH]nc(/C=C/c4ccccn4)c3c2)c1 [DYX-135X, (E)-5-(3-methoxybenzyl)-3-(2-(pyridin-2-yl)vinyl)-1H-indazole] | 2980 nM | 70.5 nM | 22.5 nM | 49.4 nM | 2990 nM | 2400 nM |
| Fc1ccc(Cc2ccc3[nH]nc(/C=C/c4ccccn4)c3c2)c(F)c1 [DYX-060, (E)-5-(2,4-difluorobenzyl)-3-(2-(pyridin-2-yl)vinyl)-1H-indazole] | > 10000 nM | 375 nM | 620 nM | 818 nM | > 10000 nM | > 10000 nM |
| O=S(=O)(c1cc(F)cc(F)c1)c1ccc2[nH]nc(/C=C/c3ccccn3)c2n1 [DYX-150, (E)-5-((3,5-difluorophenyl)sulfonyl)-3-(2-(pyridin-2-yl)vinyl)-1H-pyrazolo[4,3-b]pyridine] | 163 nM | 9.4 nM | 4.1 nM | 3.3 nM | 65.2 nM | 120 nM |
| Fc1cc(F)cc(Cc2ccc3[nH]nc(/C=C/c4ccc5ccccc5n4)c3c2)c1 [DYX-06, (E)-2-(2-(5-(3,5-difluorobenzyl)-1H-indazol-3-yl)vinyl)quinoline] | 723 nM | 87.1 nM | 77.4 nM | 14.1 nM | 640 nM | 492 nM |
| Fc1cc(F)cc(CCc2ccc3[nH]nc(/C=C/c4ccccn4)c3c2)c1 [DYX-180, (E)-5-(3,5-difluorophenethyl)-3-(2-(pyridin-2-yl)vinyl)-1H-indazole] | 694 nM | 9.9 nM | 4.7 nM | 3.9 nM | 498 nM | 415 nM |
| N#Cc1cccc(Cc2ccc3[nH]nc(/C=C/c4ccccn4)c3c2)c1 [DYX-136X, (E)-3-((3-(2-(pyridin-2-yl)vinyl)-1H-indazol-5-yl)methyl)benzonitrile] | 1070 nM | 91 nM | 5.8 nM | 4.8 nM | 603 nM | 733 nM |
| Fc1cccc(CNc2ccc3[nH]nc(/C=C/c4ccccn4)c3c2)c1 [DYX-305, (E)-N-(3-fluorobenzyl)-3-(2-(pyridin-2-yl)vinyl)-1H-indazol-5-amine] | 51.3 nM | 9.5 nM | 1.3 nM | 1.8 nM | 28.2 nM | 22.9 nM |
| CN(c1cc(F)cc(F)c1)c1ccc2[nH]nc(/C=C/c3ccccn3)c2c1 [DYX-139, (E)-N-(3,5-difluorophenyl)-N-methyl-3-(2-(pyridin-2-yl)vinyl)-1H-indazol-5-amine] | 1790 nM | 25.7 nM | 18.1 nM | 15 nM | 2360 nM | 1270 nM |

Results, then the molecule that gave them:

| IC50 [1] | IC50 [2] | IC50 [3] | IC50 [4] | IC50 [5] | IC50 [6] | SMILES |
| --- | --- | --- | --- | --- | --- | --- |
| > 10000 nM | 817 nM | 211 nM | 292 nM | > 10000 nM | > 10000 nM | COc1cccc(Cc2ccc3[nH]nc(C#Cc4ccccn4)c3c2)c1 [DYX-135Q, 5-(3-methoxybenzyl)-3-(pyridin-2-ylethynyl)-1H-indazole] |
| 571 nM | 36.6 nM | 24.8 nM | 21.8 nM | 595 nM | 500 nM | Fc1cc(F)cc(Oc2ccc3[nH]nc(/C=C/c4ccccn4)c3c2)c1 [DYX-101, (E)-5-(3,5-difluorophenoxy)-3-(2-(pyridin-2-yl)vinyl)-1H-indazole] |
| > 10000 nM | > 1000 nM | > 1000 nM | > 1000 nM | 2480 nM | > 10000 nM | Fc1cc(Cc2ccc3[nH]nc(C#Cc4ccccn4)c3c2)cc(F)c1F [DYX-075, 3-(pyridin-2-ylethynyl)-5-(3,4,5-trifluorobenzyl)-1H-indazole] |
| > 10000 nM | 397 nM | 91.1 nM | 213 nM | > 10000 nM | > 10000 nM | Cc1cccc(Cc2ccc3[nH]nc(C#Cc4ccccn4)c3c2)c1 [DYX-137Q, 5-(3-methylbenzyl)-3-(pyridin-2-ylethynyl)-1H-indazole] |
| 2830 nM | 435 nM | 41 nM | 72 nM | 2500 nM | 2200 nM | Fc1cccc(Cc2ccc3[nH]nc(C#Cc4ccccn4)c3c2)c1F [DYX-074, 5-(2,3-difluorobenzyl)-3-(pyridin-2-ylethynyl)-1H-indazole] |
| > 10000 nM | > 1000 nM | 226 nM | 648 nM | > 10000 nM | > 10000 nM | Fc1cc(F)cc(-c2ccc3[nH]nc(/C=C/c4ccccn4)c3c2)c1 [DYX-119, (E)-5-(3,5-difluorophenyl)-3-(2-(pyridin-2-yl)vinyl)-1H-indazole] |
| 3090 nM | 360 nM | 79 nM | 110 nM | 4930 nM | 2600 nM | Fc1ccccc1Cc1ccc2[nH]nc(C#Cc3ccccn3)c2c1 [DYX-021, 5-(2-fluorobenzyl)-3-(pyridin-2-ylethynyl)-1H-indazole] |
| > 10000 nM | > 1000 nM | > 1000 nM | > 1000 nM | > 10000 nM | > 10000 nM | Fc1cc(F)cc(-c2ccc3[nH]nc(C#Cc4ccccn4)c3c2)c1 [DYX-115, 5-(3,5-difluorophenyl)-3-(pyridin-2-ylethynyl)-1H-indazole] |
| 4620 nM | 124 nM | 40.3 nM | 91.9 nM | > 10000 nM | 2650 nM | Clc1cccc(Cc2ccc3[nH]nc(C#Cc4ccccn4)c3c2)c1 [DYX-134Q, 5-(3-chlorobenzyl)-3-(pyridin-2-ylethynyl)-1H-indazole] |
